Patent US20250195463A1, “ORGANOMETALLIC COMPLEX, CONTROLLED-RELEASE MULTI-FUNCTIONAL DRUG, PHARMACEUTICAL COMPOSITION, PROCESSES FOR THE PREPARATION THEREOF AND THEIR USE” (FACULDADE DE CIÊNCIAS DA UNIVERSIDADE DE LISBOA, priority 2022, published 2025)
Like-named read-outs stand apart in the source and are kept apart here.

What was measured:
[1] = Stability in organic medium (dimethyl sulfoxide) by UV-Vis spectroscopy; assay type: physicochemical; conditions: for Relative variation of the maximum absorbance of the π→π* transitions: band 289-300 nm (λmax in column head); for Relative variation of the maximum absorbance of the charge transfer bands: band 357-425 nm (λmax in column head)
Method in brief: (§1)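 UV-Vis spectra (270-900 nm) were recorded at intervals from 0 to 24 h, at room temperature in the dark. Solvents were 100% DMSO, or 5% or 10% DMSO in DMEM depending on complex, at 7.0×10^-5 M to 3.0×10^-4 M.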

MDA-MB-231 (FGFR−) = experiment: MTT cytotoxicity assay; conditions: for IC50 range in words: Example 24; for IC50: read-out: Cytotoxic activity expressed as IC50, 48 h, 37° C.
Method in brief: (§2)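 Cells were exposed continuously for 48 h at 37 °C to compounds at 0.1 to 100 μM. In pH-controlled runs, RuPC1 stock was pre-incubated 48 h at pH 6.8 or 7.4, then tested at 0.1 to 50 μM. Viability was read by MTT (0.5 mg/mL, 3 h) absorbance at 570 nm versus untreated cells, with IC50 fitted.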

MCF-7 (FGFR−) = experiment: MTT cytotoxicity assay; conditions: read-out: Cytotoxic activity expressed as IC50; Table 6; MCF-7 (FGFR−); 48 h, 37° C.
Method in brief: as §2

MDA-MB-134-VI (FGFR+) = experiment: MTT cytotoxicity assay; conditions: read-out: Cytotoxic activity expressed as IC50; Table 6; MDA-MB-134-VI (FGFR+); 48 h, 37° C.
Method in brief: as §2

SK-BR-3 (FGFR+) = experiment: MTT cytotoxicity assay; conditions: read-out: Cytotoxic activity expressed as IC50; Table 6; SK-BR-3 (FGFR+); 48 h, 37° C.
Method in brief: as §2

[2] = Stability in aqueous medium (dimethyl sulfoxide/Dulbecco's Modified Eagle Medium) by UV-Vis spectroscopy; assay type: physicochemical; conditions: 5% dimethyl sulfoxide/95% Dulbecco's Modified Eagle Medium; for Relative variation of the maximum absorbance of the π→π* transitions: band 292-296 nm (λmax in column head); for Relative variation of the maximum absorbance of the charge transfer bands: band 358-400 nm (λmax in column head)
Method in brief: as §1

## NNC(=O)C1=C[CH]([Ru-]2([PH](c3ccccc3)(c3ccccc3)c3ccccc3)[n+]3ccccc3-c3cccc[n+]32)C=C1.O=S(=O)([O-])C(F)(F)F (stereo not drawn) [compound 4]
[1]; time 0 h
  Relative variation of the maximum absorbance of the π→π* transitions: 0.0%
  Relative variation of the maximum absorbance of the charge transfer bands: 0.0%
[1]; time 0.25 h
  Relative variation of the maximum absorbance of the π→π* transitions: 0.3%
  Relative variation of the maximum absorbance of the charge transfer bands: 0.0%
[1]; time 0.5 h
  Relative variation of the maximum absorbance of the π→π* transitions: 0.3%
  Relative variation of the maximum absorbance of the charge transfer bands: −0.1%
[1]; time 0.75 h
  Relative variation of the maximum absorbance of the π→π* transitions: 0.3%
  Relative variation of the maximum absorbance of the charge transfer bands: −0.2%
[1]; time 1 h
  Relative variation of the maximum absorbance of the π→π* transitions: 0.5%
  Relative variation of the maximum absorbance of the charge transfer bands: 0.1%
[1]; time 2 h
  Relative variation of the maximum absorbance of the π→π* transitions: 0.4%
  Relative variation of the maximum absorbance of the charge transfer bands: −0.2%
[1]; time 3 h
  Relative variation of the maximum absorbance of the π→π* transitions: 0.6%
  Relative variation of the maximum absorbance of the charge transfer bands: 0.2%
[1]; time 4 h
  Relative variation of the maximum absorbance of the π→π* transitions: 0.7%
  Relative variation of the maximum absorbance of the charge transfer bands: 0.9%
[1]; time 5 h
  Relative variation of the maximum absorbance of the π→π* transitions: −0.3%
  Relative variation of the maximum absorbance of the charge transfer bands: 1.0%
[1]; time 6 h
  Relative variation of the maximum absorbance of the π→π* transitions: −0.2%
  Relative variation of the maximum absorbance of the charge transfer bands: 0.6%
[1]; time 24 h
  Relative variation of the maximum absorbance of the π→π* transitions: −0.2%
  Relative variation of the maximum absorbance of the charge transfer bands: 1.6%
MDA-MB-231 (FGFR−); MDA-MB-231
  IC50 range in words: low micromolar range
MDA-MB-231 (FGFR−); Table 5, MDA-MB-231
  IC50: 7.1 µM
MDA-MB-231 (FGFR−); Table 6, MDA-MB-231 (FGFR−)
  IC50: 6.1 ± 1.3 µM
MCF-7 (FGFR−)
  IC50: 5.8 ± 0.8 µM
MDA-MB-134-VI (FGFR+)
  IC50: 7.1 ± 1.3 µM
SK-BR-3 (FGFR+)
  IC50: 7.5 ± 1 µM
[2]; time 0 h
  Relative variation of the maximum absorbance of the π→π* transitions: 0.0%
  Relative variation of the maximum absorbance of the charge transfer bands: 0.0%
[2]; time 0.25 h
  Relative variation of the maximum absorbance of the π→π* transitions: 0.1%
  Relative variation of the maximum absorbance of the charge transfer bands: −0.2%
[2]; time 0.5 h
  Relative variation of the maximum absorbance of the π→π* transitions: 0.1%
  Relative variation of the maximum absorbance of the charge transfer bands: −0.7%
[2]; time 0.75 h
  Relative variation of the maximum absorbance of the π→π* transitions: −0.4%
  Relative variation of the maximum absorbance of the charge transfer bands: −1.3%
[2]; time 1 h
  Relative variation of the maximum absorbance of the π→π* transitions: −0.3%
  Relative variation of the maximum absorbance of the charge transfer bands: −0.9%
[2]; time 2 h
  Relative variation of the maximum absorbance of the π→π* transitions: −0.6%
  Relative variation of the maximum absorbance of the charge transfer bands: −0.7%
[2]; time 3 h
  Relative variation of the maximum absorbance of the π→π* transitions: −0.9%
  Relative variation of the maximum absorbance of the charge transfer bands: −1.4%
[2]; time 4 h
  Relative variation of the maximum absorbance of the π→π* transitions: −1.2%
  Relative variation of the maximum absorbance of the charge transfer bands: −0.7%
[2]; time 5 h
  Relative variation of the maximum absorbance of the π→π* transitions: −1.5%
  Relative variation of the maximum absorbance of the charge transfer bands: −2.1%
[2]; time 6 h
  Relative variation of the maximum absorbance of the π→π* transitions: −1.7%
  Relative variation of the maximum absorbance of the charge transfer bands: −2.3%
[2]; time 24 h
  Relative variation of the maximum absorbance of the π→π* transitions: 0.1%
  Relative variation of the maximum absorbance of the charge transfer bands: 3.0%

## CCC(=O)C1=C[CH]([Ru-]2([PH](c3ccccc3)(c3ccccc3)c3ccccc3)[n+]3ccccc3-c3cccc[n+]32)C=C1.O=S(=O)([O-])C(F)(F)F (stereo not drawn) [compound 8]
[1]; time 0 h
  Relative variation of the maximum absorbance of the π→π* transitions: 0.0%
  Relative variation of the maximum absorbance of the charge transfer bands: 0.0%
[1]; time 0.25 h
  Relative variation of the maximum absorbance of the π→π* transitions: 0.0%
  Relative variation of the maximum absorbance of the charge transfer bands: 0.0%
[1]; time 0.5 h
  Relative variation of the maximum absorbance of the π→π* transitions: 0.2%
  Relative variation of the maximum absorbance of the charge transfer bands: 0.1%
[1]; time 0.75 h
  Relative variation of the maximum absorbance of the π→π* transitions: 0.0%
  Relative variation of the maximum absorbance of the charge transfer bands: 0.0%
[1]; time 1 h
  Relative variation of the maximum absorbance of the π→π* transitions: 0.1%
  Relative variation of the maximum absorbance of the charge transfer bands: 0.3%
[1]; time 2 h
  Relative variation of the maximum absorbance of the π→π* transitions: 0.0%
  Relative variation of the maximum absorbance of the charge transfer bands: 0.2%
[1]; time 3 h
  Relative variation of the maximum absorbance of the π→π* transitions: −0.3%
  Relative variation of the maximum absorbance of the charge transfer bands: 0.0%
[1]; time 4 h
  Relative variation of the maximum absorbance of the π→π* transitions: −0.1%
  Relative variation of the maximum absorbance of the charge transfer bands: 0.0%
[1]; time 5 h
  Relative variation of the maximum absorbance of the π→π* transitions: −0.1%
  Relative variation of the maximum absorbance of the charge transfer bands: −0.3%
[1]; time 6 h
  Relative variation of the maximum absorbance of the π→π* transitions: −0.2%
  Relative variation of the maximum absorbance of the charge transfer bands: 0.3%
[1]; time 24 h
  Relative variation of the maximum absorbance of the π→π* transitions: −0.2%
  Relative variation of the maximum absorbance of the charge transfer bands: 0.2%
MDA-MB-231 (FGFR−); MDA-MB-231
  IC50 range in words: sub-micromolar range
MDA-MB-231 (FGFR−); Table 5, MDA-MB-231
  IC50: 0.56 µM
[2]; time 0 h
  Relative variation of the maximum absorbance of the π→π* transitions: 0.0%
  Relative variation of the maximum absorbance of the charge transfer bands: 0.0%
[2]; time 0.25 h
  Relative variation of the maximum absorbance of the π→π* transitions: −0.1%
  Relative variation of the maximum absorbance of the charge transfer bands: −0.3%
[2]; time 0.5 h
  Relative variation of the maximum absorbance of the π→π* transitions: −0.2%
  Relative variation of the maximum absorbance of the charge transfer bands: −0.6%
[2]; time 0.75 h
  Relative variation of the maximum absorbance of the π→π* transitions: 0.0%
  Relative variation of the maximum absorbance of the charge transfer bands: −0.7%
[2]; time 1 h
  Relative variation of the maximum absorbance of the π→π* transitions: −0.1%
  Relative variation of the maximum absorbance of the charge transfer bands: −0.9%
[2]; time 2 h
  Relative variation of the maximum absorbance of the π→π* transitions: 0.0%
  Relative variation of the maximum absorbance of the charge transfer bands: −0.7%
[2]; time 3 h
  Relative variation of the maximum absorbance of the π→π* transitions: 0.1%
  Relative variation of the maximum absorbance of the charge transfer bands: −0.6%
[2]; time 4 h
  Relative variation of the maximum absorbance of the π→π* transitions: 0.0%
  Relative variation of the maximum absorbance of the charge transfer bands: −0.6%
[2]; time 5 h
  Relative variation of the maximum absorbance of the π→π* transitions: 0.1%
  Relative variation of the maximum absorbance of the charge transfer bands: −0.6%
[2]; time 6 h
  Relative variation of the maximum absorbance of the π→π* transitions: 0.1%
  Relative variation of the maximum absorbance of the charge transfer bands: −0.5%
[2]; time 24 h
  Relative variation of the maximum absorbance of the π→π* transitions: 6.0%
  Relative variation of the maximum absorbance of the charge transfer bands: −0.9%
